Data as given in a melting point compilation (Tetko et al.; mined from patent text by program, amines drawn as free bases though some values may be those of a salt).

For COc1cc(NCc2ccccc2C)ccc1C(=O)N1CCCC(CC(=O)N2CCN(C)CC2)c2cc(Cl)ccc21 (stereo unspecified), the melting point was 153 to 154 °C.
O=C1CCCN2N=C(c3ccc(Br)cc3)SC2=N1 gave a melting point of 204 to 207 °C.
Molecule CCOC(=O)c1cn(C)c2nc3cc(F)c(F)cc3cc2c1=O has a melting point of 323 to 324 °C.
For CC(C)(CS(=O)(=O)c1ccc(Oc2ccc(OC(F)(F)F)cc2)cc1)N(O)C=O, the melting point was 128 to 129 °C.
With O=C(O)CCCCCCNS(=O)(=O)c1ccccc1 the melting point was 75 to 77 °C.
COc1ccc(Cl)c(NC(=S)N(CCN2C(=O)c3ccccc3C2=O)OCc2ccccc2)c1Cl showed a melting point of 175 to 176 °C.
Work on OCc1c(Cl)nc2ccccc2c1-c1ccc(F)cc1 yielded a melting point of 159 to 160 °C.
O=C/C=C/c1cc2cc(Cl)ccc2[nH]1 showed a melting point of 207 to 209 °C.
In the case of OCc1nc2cc(Cl)cnc2[nH]1, the melting point is reported as 209 to 211 °C.
Molecule COC(=O)c1nc(-c2ccc(Cl)c(F)c2F)nc(N)c1Br has a melting point of 175 to 178 °C.
In the case of CCOCc1nc2c(N)nc(C)c(C)c2n1CCCN, the melting point is reported as 127 °C.
CCC(C)(C)c1c[nH]cn1 gave a melting point of 95 to 96 °C.
In the case of O=C1Cc2ccc(S(=O)(=O)Cl)cc21, the melting point is reported as 80 °C.
In the case of CCC(CC)(CC(=O)Nc1ccc2ccc(OCc3ccc4ccc(F)cc4n3)cc2c1)C(=O)O, the melting point is reported as 164 to 166 °C.
CC(C)=CCCC(C)=CCOc1ccc(C(=O)NCCc2ccccn2)cc1 showed a melting point of 67 to 69 °C.
O=C(Nc1ccccc1CS(=O)c1nccn1-c1ccccn1)c1ccccc1 (stereo unspecified) showed a melting point of 109 to 111 °C.
Cc1ccc2oc(=O)c(NC(=O)Nc3ccc(F)cc3F)c(-c3ccccc3Cl)c2c1 showed a melting point of 214 to 215 °C.
With Cc1c(Cc2cccc(C(F)(F)F)c2)sc2c(-c3cccc(C(=O)NCCC#N)c3)cccc12 the melting point was 135 to 136 °C.
In the case of CCCNC(=O)C(C#N)=C1Nc2ccccc2O1, the melting point is reported as 215 to 220 °C.
In the case of COc1ccc(S(=O)(=O)c2c(Br)cc(CC(=O)O)cc2Br)cc1C(C)C, the melting point is reported as 170 to 173 °C.
With CC(=O)OC1CCCc2cnc3cc(OCc4ccccc4)ccc3c21 (stereo unspecified) the melting point was 70 to 72 °C.
With O=C(NCCO)c1[nH]c2ccc(Cl)cc2c1-c1ccccc1F the melting point was 178 to 180 °C.
With O=C(Nc1ccc2nc(CN3CCCCC3)ccc2c1)c1ccc(-c2ccc(Cl)cc2)cc1 the melting point was 211 to 213 °C.
Work on CN1CCN(CCCCCC(=O)N2c3ccccc3C(=O)Nc3cccnc32)CC1 yielded a melting point of 179 to 181 °C.
Molecule O=C(O)[C@@]1(c2ccc3ccccc3c2)CC1(c1ccccc1)c1ccccc1 has a melting point of 195 to 196 °C.
CC(C)(C)OC(=O)Nc1ccc(-c2cccc(F)c2F)cc1N gave a melting point of 78 °C.
With Nc1c(N=O)c(=O)n(CCC2=CCCCC2)c(=O)n1CCC1=CCCCC1 the melting point was 220 to 222 °C.
For CCCCCCCCCCCCC(Oc1ccc2c(c1)OCO2)C(=O)O (stereo unspecified), the melting point was 70 to 72 °C.
Molecule O=C1Nc2cc(Cl)c(Cl)cc2C1(Br)c1ccccc1Cl (stereo unspecified) has a melting point of 215 to 218 °C.
N[C@H]1CCN(c2cc3c(cc2F)c(=O)c(C(=O)O)cn3-c2nc[nH]n2)C1 showed a melting point of 250 to 260 °C.
Molecule O=C(c1c[nH]c(=O)[nH]1)c1ccco1 has a melting point of 318 to 321 °C.
Work on Cc1ccc(C)c(S(=O)(=O)Nc2onc(C)c2Cl)c1 yielded a melting point of 92 to 93 °C.
COc1cc(C(=O)CCCN2CCC(OC(=O)c3cc(Cl)c(N)c4cc(C)oc34)CC2)cc(OC)c1OC gave a melting point of 129 °C.
In the case of CSc1cccc(Nc2nc(OCC3CCCCC3)c3[nH]cnc3n2)c1, the melting point is reported as 190 to 192 °C.
With O=C(NCc1cn(-c2ccc(N3CCSCC3)c(F)c2)nn1)c1cnccn1 the melting point was 216 to 218 °C.
Work on COc1cc(OC)c(-c2cccs2)cc1/C=C/C(=O)c1ccc(S(=O)(=O)NCC(F)(F)F)cc1 yielded a melting point of 167 to 168 °C.
Molecule Cc1cc(C)c(N2CCCc3c2nn(C)c3NC(=O)OC(C)(C)C)c(Cl)c1 has a melting point of 171 to 176 °C.
Work on Fc1ccc(C#CCCC#Cc2ccccn2)cc1 yielded a melting point of 68 to 69 °C.
Cc1[nH]c(C(=O)Nc2ccc(C#N)cc2)c(C)c1-c1nc2ccc(C(=O)c3ccccc3)cc2[nH]1 gave a melting point of 252 to 254 °C.
Molecule CCOC(=O)c1ccc(-c2cnc3c(c2)N(Cc2c(F)ccc(F)c2Cl)C(=O)CN3)cc1 has a melting point of 180 to 182 °C.
For Cn1c(C(F)(F)F)cc(=O)n(-c2ccc(Cl)c(C=CC#N)c2)c1=O, the melting point was 263 to 265 °C.
Nc1ccccc1-c1ccc(CCCC(=O)O)cc1 gave a melting point of 123 to 126 °C.
In the case of CC(=O)N1CCS(=O)c2cccc(Cl)c2C1 (stereo unspecified), the melting point is reported as 119 to 121 °C.
Work on CCOC(=O)C=C1CC(c2cccc(C3(c4ccc(OC(F)F)cc4)N=C(N)N(C)C3=O)c2)C1 (stereo unspecified) yielded a melting point of 78 to 80 °C.
For CC(C)(C)C(=O)Nc1ccncc1, the melting point was 137 to 140 °C.
With CCN1CCN(c2ccc(C(=O)OC)cc2)CC1 the melting point was 102 to 104 °C.
Work on CC1(C)OC[C@H](Cn2cc3nccc(I)c3n2)O1 yielded a melting point of 85 to 87 °C.
In the case of O=C(O)CNC(=O)Nc1cccc(C(=O)OCc2ccccc2)c1, the melting point is reported as 168 °C.
O=C(O)CCCNC(=O)CCCCC1CCSS1 (stereo unspecified) gave a melting point of 56 to 58 °C.
With O=C(O)c1c[nH]c(=S)n1C1Cc2cc(F)c(F)cc2C1 the melting point was 233 to 234 °C.
For CN1CCN(c2ccc(-c3cnc4[nH]cc(C(=O)N[C@@H](C(=O)N5CC(C#N)C5)C5CC5)c4n3)cc2)CC1, the melting point was 178 to 185 °C.
With CCOC(=O)/C(=C/c1ccccc1)OC(C)=O the melting point was 41 to 47 °C.
In the case of CC(C)(C)c1cc(SC(Sc2cc(C(C)(C)C)c(O)c(C(C)(C)C)c2)C2CC=CCC2)cc(C(C)(C)C)c1O (stereo unspecified), the melting point is reported as 122 to 125 °C.
In the case of O=C(O)C1CCCN1c1ncccc1[N+](=O)[O-] (stereo unspecified), the melting point is reported as 137 to 139 °C.
For COc1cc(OC)cc(-c2ncn(-c3ccc(C(F)(F)F)cc3)c2-c2ccc(OC)c(O)c2)c1, the melting point was 111 to 113 °C.
For CCOC(=O)C(C)(C)N1COC(C)=C(I)C1=O, the melting point was 85 to 87 °C.
O=C(CCC1c2ccccc2-c2ccccc21)N[C@@H](Cc1ccccc1)C(=O)O gave a melting point of 194 to 195 °C.
Molecule COCc1cc(O)n[nH]1 has a melting point of 123 to 125 °C.
For CN1C(C(=O)Nc2cncc(Cl)n2)=C(O)c2ccc3ccccc3c2S1(=O)=O, the melting point was 209 to 210 °C.
For CCNC(=O)CC(Cc1cccc2ccccc12)C(=O)NC(Cc1c[nH]cn1)C(=O)NC(CC(C)C)C(O)C(=O)OC (mixture of isomers), the melting point was 103 to 108 °C.
CC(=O)Nc1ccccc1OCCCN1CCC(c2noc3cc(F)ccc23)CC1 showed a melting point of 118 to 120 °C.
With c1cc(CCCCCc2nnn[nH]2)n2cncc2c1 the melting point was 149 to 150 °C.
In the case of CN(CCc1ccc2c(c1)oc(=O)n2C)Cc1ccccc1, the melting point is reported as 72 to 73 °C.
CNC(=O)CCCSc1nccc(NC(N)=NCC(F)(F)F)n1 showed a melting point of 153 to 155 °C.
COc1cc(O)c(Br)c2cc(-c3ccc(O)cc3)oc12 gave a melting point of 170 °C.
For O=C1C(=O)c2ccccc2C2=C1SCC1(CCCNC1)O2 (stereo unspecified), the melting point was 128 to 134 °C.
In the case of CN1C(C)(C)CC(OC(=O)CCC(C)(c2ccc(O)c(C(C)(C)C)c2)c2ccc(O)c(C(C)(C)C)c2)CC1(C)C, the melting point is reported as 203 °C.
Fc1ccc(-c2ccn(CC3CCCNC3)c2-c2ccncc2)cc1 (stereo unspecified) gave a melting point of 134 to 135 °C.
Molecule CCn1c(=O)c2c(nc(C=Cc3cc(OC)ccc3S(N)(=O)=O)n2C)n(CC)c1=O has a melting point of 236 to 237 °C.
Molecule CON=C(C1=C(O)C(=O)N(c2ncc(S(=O)(=O)c3ccc([N+](=O)[O-])cc3)s2)C1c1ccc(C(C)C)cc1)c1ccc(C)cc1 (stereo unspecified) has a melting point of 156 °C.
Cc1ncccc1CCCC(C)NC(=O)C(O)c1ccccc1 (stereo unspecified) gave a melting point of 133 to 134 °C.
Molecule COc1ccc(-c2ccc(OC)nn2)c(OCC(O)CNC(C)(C)C)c1 (stereo unspecified) has a melting point of 114 to 116 °C.
In the case of O=C(c1cccs1)c1cnn2c(-c3cccs3)ccnc12, the melting point is reported as 193 to 195 °C.
Work on COc1c(F)c(F)cc(C(N)=O)c1F yielded a melting point of 130 to 133 °C.
For CC[C@H](NC(=O)OCC1c2ccccc2-c2ccccc21)[C@@H](O)C(=O)O, the melting point was 160 to 162 °C.
Work on O=c1nc(NCCCCc2ncccc2Cl)[nH]cc1C(O)c1ccncc1 (stereo unspecified) yielded a melting point of 90 °C.
Molecule CCCCc1cc2c(=O)n3cc(C(=O)O)ccc3nc2s1 has a melting point of 250 to 252 °C.
For N#Cc1ccsc1C1=CC(=O)Nc2cc(-c3ccccc3F)c(O)cc2N1, the melting point was 242 °C.
For CCCOc1ccc(C(C)=O)cc1C(=O)OC, the melting point was 49 °C.
Work on CCCNS(=O)(=O)c1cc(C)c2cc(C(C)C)ccc(C)c1-2 yielded a melting point of 60 to 62 °C.
In the case of Nc1nc(N)nc(-c2cccc(S(N)(=O)=O)c2)n1, the melting point is reported as over 290 °C.
Work on COC(=O)c1ccc(-c2nnc(C)o2)s1 yielded a melting point of 142 to 145 °C.
With O=C(Nc1ccc(F)cc1)c1cn2nc(N3CCN(C(=O)c4ccccc4C(F)(F)F)CC3)ccc2n1 the melting point was 115 to 117 °C.
For CCOc1cc(N)c(Cl)cc1C(=O)NCCC1CN(Cc2ccccc2)CCO1 (stereo unspecified), the melting point was 149 to 151 °C.
In the case of CCOC(=O)c1cn(-c2cc(NC(=O)OC(C)(C)C)c(F)cc2F)c2c(Cl)c(N)c(F)cc2c1=O, the melting point is reported as 143 to 150 °C.
NS(=O)(=O)CS(=O)(=O)c1ccc(SCCO)cc1 showed a melting point of 136 to 137 °C.
O=C(O)c1c[nH]c(Sc2cc(Cl)c(Cl)cc2Cl)c1 gave a melting point of 210 to 215 °C.
COC(=O)C(NCc1ccccc1)c1c[nH]c2ccccc12 (stereo unspecified) showed a melting point of 91.5 to 93 °C.
With CCOCc1nc2c(N)nc3ccccc3c2n1CCCNC(=O)OC(C)(C)C the melting point was 124 to 126 °C.
COc1ccc(C(C)(C)C)cc1C(=O)c1ccc([N+](=O)[O-])cc1Cl gave a melting point of 82.5 to 83.5 °C.
O=C(O)c1cc(OCc2ccccn2)c(C(=O)c2ccccc2)c([N+](=O)[O-])c1 gave a melting point of 224 to 225 °C.
Molecule C=CC(=O)OCCOc1ccc(C(=O)C(C)(C)OC(=O)C=C)cc1 has a melting point of 71 °C.
Work on NC(=O)COc1ccc(-c2n[nH]c3c2Cc2ccccc2-3)cc1 yielded a melting point of 247 to 248 °C.
With O=C(NC[C@H](O)[C@@H](O)[C@H](O)C(=O)CO)OCc1ccccc1 the melting point was 107 to 111 °C.
For CON=C(c1ccccc1)c1ccc2c(c1)NC(=O)CO2, the melting point was 147 to 149 °C.
N#Cc1c(N2CCCC2)cc(-c2ccccc2)c2c1-c1ccccc1C2=O showed a melting point of 202 to 204 °C.
For Cn1nc(-c2c(Cl)cccc2Cl)nc1Cc1ccc(Cl)cc1, the melting point was 112 to 115 °C.
In the case of CC(NC(=O)C=Cc1ccc(Cl)cc1)c1ccc(NS(C)(=O)=O)c(F)c1 (stereo unspecified), the melting point is reported as 170 to 172 °C.
Oc1cccc2c1c1cccc(F)c1n2Cc1ccccc1 gave a melting point of 155 to 156 °C.
Molecule OC[C@H]1OC[C@@H](n2cnc3cc(Cl)c(Cl)cc32)C[C@@H]1O has a melting point of 197 °C.
CCCCCCCCCCCCCCCCCC(=O)NC#N gave a melting point of 74 to 75 °C.
